Columns and labels:
dopamine D3 receptor = dopamine D3 receptor (Homo sapiens, UniProt P35462); assay: Binding affinity to cloned human dopamine receptors (radioligand displacement), D3; settings: for Affinity to Dopamine Receptors (% Inhibition) D3: 1 µM test compound
Procedure: (§1) Experimental Example: Test for the Binding Affinity to Dopamine Receptor
(§2) Binding affinities of the compounds for dopamine receptors were determined indirectly by their ability to displace radiolabeled ligand from cloned human dopamine receptors. Compounds were incubated in receptor suspension to compete with the radiolabeled ligand. The receptor-bound radiolabeled ligand was separated by filtering through Wallac glass fiber filtermat (GF/C) using Inotech cell harvester of 96-well format. The radioactivity bound to filter was counted by Micro-P counter (Wallac).
(§3) The aliquots of cloned human dopamine receptors stored at −70° C. were suspended in assay buffer and the content of receptor in each aliquot was determined by Bio-Rad DC protein assay kit to give an optimal protein (receptor) concentration obtained by preliminary receptor binding assay. Receptor suspension adjusted to optimal concentration was aliquoted in proper volume for assay and stored at −70° C. Binding assays of every compound were performed in duplicate and each different buffer solution was used for optimal assay with each subtype of dopamine receptors. Receptor binding assays were carried out in 96-well plates. Receptor suspension of 100 was incubated at 27° C. for 30-60 min in a final volume of 0.25 ml reaction mixture containing 50 of hot-ligand and 10 of test compound.
(§4) After incubation, the reaction mixture was washed with ice-cold 50 mM Tris-acetate buffer by rapid filtration using a Inotech cell harvester (Inotech, Switzerland) through Whatman GF/C glass fiber filter presoaked in the assay buffer. The filter was covered with MeltiLex, sealed in a sample bag followed by drying in the microwave, and counted by MicroBeta Plus (Wallac, Finland) at a counting efficiency of 30-40%.

dopamine D2 receptor = dopamine D2 receptor (Homo sapiens, UniProt P14416); assay: Binding affinity to cloned human dopamine receptors (radioligand displacement), D2; settings: for Affinity to Dopamine Receptors (% Inhibition) D2: 1 µM test compound
Procedure: as §1, §2, §3, §4

dopamine D4 receptor = target: T1, dopamine D4 receptor (Homo sapiens, UniProt P21917); assay: Binding affinity to cloned human dopamine receptors (radioligand displacement), D4; settings: for Affinity to Dopamine Receptors (% Inhibition) D4: 1 µM test compound
T1 sequence (P21917 1-419): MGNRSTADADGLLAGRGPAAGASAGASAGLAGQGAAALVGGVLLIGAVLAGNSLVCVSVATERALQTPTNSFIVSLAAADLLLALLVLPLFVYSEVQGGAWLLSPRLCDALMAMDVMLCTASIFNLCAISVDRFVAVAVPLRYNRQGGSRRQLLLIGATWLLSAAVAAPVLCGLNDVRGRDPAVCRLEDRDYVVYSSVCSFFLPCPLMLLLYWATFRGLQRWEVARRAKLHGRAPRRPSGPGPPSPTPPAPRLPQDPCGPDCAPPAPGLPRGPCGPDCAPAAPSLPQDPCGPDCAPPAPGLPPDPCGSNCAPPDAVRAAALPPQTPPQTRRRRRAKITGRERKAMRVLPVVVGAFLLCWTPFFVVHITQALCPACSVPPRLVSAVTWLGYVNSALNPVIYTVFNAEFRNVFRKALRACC
Procedure: as §1, §2, §3, §4

dopamine D1 receptor = dopamine D1 receptor (Homo sapiens, UniProt P21728); assay: Binding affinity to cloned human dopamine receptors (radioligand displacement), D1; settings: for Affinity to Dopamine Receptors (% Inhibition) D1: 1 µM test compound
Procedure: as §1, §2, §3, §4

Sequence of dopamine D3 receptor (P35462 whole entry): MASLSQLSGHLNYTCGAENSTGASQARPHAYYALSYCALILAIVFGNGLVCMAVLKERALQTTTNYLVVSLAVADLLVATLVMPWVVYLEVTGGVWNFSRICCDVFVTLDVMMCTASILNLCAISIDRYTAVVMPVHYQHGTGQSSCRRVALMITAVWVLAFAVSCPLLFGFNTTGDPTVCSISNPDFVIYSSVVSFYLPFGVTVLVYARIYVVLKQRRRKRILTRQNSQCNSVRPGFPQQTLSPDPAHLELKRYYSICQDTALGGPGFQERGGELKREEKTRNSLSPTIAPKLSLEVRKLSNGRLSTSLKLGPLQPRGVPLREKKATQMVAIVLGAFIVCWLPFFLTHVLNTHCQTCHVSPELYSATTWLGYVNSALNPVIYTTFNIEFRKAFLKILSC
Sequence of dopamine D1 receptor (P21728 whole entry): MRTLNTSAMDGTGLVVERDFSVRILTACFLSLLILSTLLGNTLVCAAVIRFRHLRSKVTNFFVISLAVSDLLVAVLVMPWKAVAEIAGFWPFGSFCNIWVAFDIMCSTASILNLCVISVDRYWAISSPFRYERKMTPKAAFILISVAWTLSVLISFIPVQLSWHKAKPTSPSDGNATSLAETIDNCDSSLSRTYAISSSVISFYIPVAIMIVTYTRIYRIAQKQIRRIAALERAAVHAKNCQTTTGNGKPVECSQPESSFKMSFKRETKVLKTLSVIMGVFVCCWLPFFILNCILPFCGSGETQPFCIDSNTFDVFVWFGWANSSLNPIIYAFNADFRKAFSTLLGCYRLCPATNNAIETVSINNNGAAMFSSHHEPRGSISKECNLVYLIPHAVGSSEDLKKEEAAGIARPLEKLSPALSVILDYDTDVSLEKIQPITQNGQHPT
Sequence of dopamine D2 receptor (P14416 whole entry): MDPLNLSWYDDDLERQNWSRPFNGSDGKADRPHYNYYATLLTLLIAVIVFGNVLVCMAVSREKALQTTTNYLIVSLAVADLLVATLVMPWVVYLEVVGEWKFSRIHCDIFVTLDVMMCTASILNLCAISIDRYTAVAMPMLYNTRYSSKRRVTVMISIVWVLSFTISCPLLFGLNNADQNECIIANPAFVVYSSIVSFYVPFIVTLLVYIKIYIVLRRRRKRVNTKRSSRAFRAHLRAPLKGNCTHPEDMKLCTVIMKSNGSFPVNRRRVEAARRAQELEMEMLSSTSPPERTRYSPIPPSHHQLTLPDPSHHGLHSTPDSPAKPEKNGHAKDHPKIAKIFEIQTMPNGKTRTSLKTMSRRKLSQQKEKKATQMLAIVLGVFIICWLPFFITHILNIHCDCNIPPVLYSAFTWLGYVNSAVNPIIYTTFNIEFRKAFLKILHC

CCOc1ccccc1N1CCN(CCCc2cc(-c3ccc(F)cc3)no2)CC1 [Compound No. 20]
Affinity to Dopamine Receptors (% Inhibition) D3 (dopamine D3 receptor): 89.4%
Affinity to Dopamine Receptors (% Inhibition) D2 (dopamine D2 receptor): 47.9%
Affinity to Dopamine Receptors (% Inhibition) D4 (dopamine D4 receptor): 86.2%

C(=C\c1cc(CCCCN2CCN(C(c3ccccc3)c3ccccc3)CC2)on1)/c1ccccc1 [Compound No. 29]
Affinity to Dopamine Receptors (% Inhibition) D3 (dopamine D3 receptor): 102.4%
Affinity to Dopamine Receptors (% Inhibition) D1 (dopamine D1 receptor): 32.6%
Affinity to Dopamine Receptors (% Inhibition) D2 (dopamine D2 receptor): 0.0%
Affinity to Dopamine Receptors (% Inhibition) D4 (dopamine D4 receptor): 31.6%

COc1ccc(-c2cc(CCCN3CCN(c4ccccc4)CC3)on2)c(OC)c1 [Compound No. 32]
IC50 (dopamine D3 receptor): 38 nM
Affinity to Dopamine Receptors (% Inhibition) D3 (dopamine D3 receptor): 100.1%
IC50 (dopamine D1 receptor): 110 nM
Affinity to Dopamine Receptors (% Inhibition) D1 (dopamine D1 receptor): 70%
IC50 (dopamine D2 receptor): 9980 nM
Affinity to Dopamine Receptors (% Inhibition) D2 (dopamine D2 receptor): 10.6%
IC50 (dopamine D4 receptor): 117 nM
Affinity to Dopamine Receptors (% Inhibition) D4 (dopamine D4 receptor): 74.9%

c1ccc(N2CCN(CCCCc3cc(-c4cccs4)no3)CC2)cc1 [Compound No. 33]
IC50 (dopamine D3 receptor): 35 nM
Affinity to Dopamine Receptors (% Inhibition) D3 (dopamine D3 receptor): 104.4%
IC50 (dopamine D1 receptor): 310 nM
Affinity to Dopamine Receptors (% Inhibition) D1 (dopamine D1 receptor): 52.9%
IC50 (dopamine D2 receptor): 18800 nM
Affinity to Dopamine Receptors (% Inhibition) D2 (dopamine D2 receptor): 6.7%
IC50 (dopamine D4 receptor): 180 nM
Affinity to Dopamine Receptors (% Inhibition) D4 (dopamine D4 receptor): 62.4%

C(=C\c1cc(CCCCN2CCN(c3ccccc3)CC2)on1)/c1ccccc1 [Compound No. 36]
Affinity to Dopamine Receptors (% Inhibition) D3 (dopamine D3 receptor): 107.9%
Affinity to Dopamine Receptors (% Inhibition) D1 (dopamine D1 receptor): 75.2%
Affinity to Dopamine Receptors (% Inhibition) D2 (dopamine D2 receptor): 22.2%
Affinity to Dopamine Receptors (% Inhibition) D4 (dopamine D4 receptor): 69%

COc1ccccc1N1CCN(CCCCc2cc(-c3ccc(F)cc3)no2)CC1 [Compound No. 37]
Affinity to Dopamine Receptors (% Inhibition) D3 (dopamine D3 receptor): 112.5%
Affinity to Dopamine Receptors (% Inhibition) D1 (dopamine D1 receptor): 52.2%
Affinity to Dopamine Receptors (% Inhibition) D2 (dopamine D2 receptor): 57.3%
Affinity to Dopamine Receptors (% Inhibition) D4 (dopamine D4 receptor): 91.3%

COc1ccc(-c2cc(CCCCN3CCN(c4ccccc4OC)CC3)on2)cc1OC [Compound No. 39]
IC50 (dopamine D3 receptor): 12 nM
Affinity to Dopamine Receptors (% Inhibition) D3 (dopamine D3 receptor): 105.1%
IC50 (dopamine D1 receptor): 2880 nM
Affinity to Dopamine Receptors (% Inhibition) D1 (dopamine D1 receptor): 23.9%
IC50 (dopamine D2 receptor): 1900 nM
Affinity to Dopamine Receptors (% Inhibition) D2 (dopamine D2 receptor): 23%
IC50 (dopamine D4 receptor): 395 nM
Affinity to Dopamine Receptors (% Inhibition) D4 (dopamine D4 receptor): 80.1%

Fc1ccccc1N1CCN(CCCCc2cc(/C=C/c3ccccc3)no2)CC1 [Compound No. 46]
Affinity to Dopamine Receptors (% Inhibition) D1 (dopamine D1 receptor): 75.8%
IC50 (dopamine D2 receptor): 2660 nM
Affinity to Dopamine Receptors (% Inhibition) D2 (dopamine D2 receptor): 15.6%
IC50 (dopamine D4 receptor): 89 nM
Affinity to Dopamine Receptors (% Inhibition) D4 (dopamine D4 receptor): 45.1%

CCOc1ccccc1N1CCN(CCCCc2cc(-c3cccs3)no2)CC1 [Compound No. 53]
IC50 (dopamine D2 receptor): 880 nM
Affinity to Dopamine Receptors (% Inhibition) D2 (dopamine D2 receptor): 54.1%
IC50 (dopamine D4 receptor): 19 nM
Affinity to Dopamine Receptors (% Inhibition) D4 (dopamine D4 receptor): 93.4%

CCOc1ccccc1N1CCN(CCCCc2cc(-c3ccccc3)no2)CC1 [Compound No. 54]
IC50 (dopamine D3 receptor): 21 nM
Affinity to Dopamine Receptors (% Inhibition) D3 (dopamine D3 receptor): 101.8%
IC50 (dopamine D2 receptor): 1550 nM
Affinity to Dopamine Receptors (% Inhibition) D2 (dopamine D2 receptor): 29.9%
IC50 (dopamine D4 receptor): 52 nM
Affinity to Dopamine Receptors (% Inhibition) D4 (dopamine D4 receptor): 77.6%

Source: patent US6723724B2, “Isoxazolylalkylpiperazine derivatives having selective biological activity at dopamine D3 or D4 receptor, and preparation thereof” (priority 2000, dated 2004)
